According to US10703757B2, “Compounds and methods for CDK8 modulation and indications therefor” (Plexxikon Inc., priority 2016, dated 2020):

What follows are compounds tested on CDK8 (phosphorylation of STAT1 at serine 727 in A549 cells) (assay: Cell based Phospho-STAT1 assay (IFNγ-stimulated A549 cells, AlphaLISA)). Conditions: Homo sapiens, A549, A549 cells, phospho-STAT1 after IFNγ stimulation.
Procedure: Determine Inhibitor Activity Against CDK8 in Cell Based Phospho-STAT1 Assay
This assay measures the phosphorylation of the CDK8 substrate STAT1 following Interferon-gamma (IFNγ) stimulation^1. The lung carcinoma cell line A549 is seeded in a 96 well plate in 50 μL of culture media at 5×10^4 cells/well and incubated at 37° C. overnight. Serial dilutions of compounds (in total volume of 50 μL culture media) are added to the cells and incubated at 37° C. for one hour. Human IFNγ (R&D Systems) is added to the cells at a 10 ng/mL final concentration. 4 wells containing DMSO treated cells stimulated with IFNγ serve as high controls and 4 wells containing DMSO treated unstimulated cells serve as low controls. After 30 minute IFNγ stimulation at 37° C., the culture media is removed and 50 μL of 1×AlphaLISA lysis buffer (PerkinElmer GA, USA) is added to each well. 5 μL cell lysate is transferred to a 384 well AlphaPlate (PerkinElmer GA, USA) and 5 μL containing 0.156 nM Phospho-STAT1 (Ser727) rabbit monoclonal antibody (Cell Signaling Technology), 0.156 nM Mouse Anti-STAT1 antibody (BD Transduction Laboratories), and 10 μg/mL Anti-rabbit IgG AlphaLISA acceptor beads (PerkinElmer GA, USA) diluted in 1× AlphaLISA immunoassay buffer (PerkinElmer GA, USA) is added to the cell lysates and incubated at room temperature for 90 minutes. 5 μL Anti-Mouse IgG Alpha donor beads diluted in 1× AlphaLISA immunoassay buffer (PerkinElmer GA, USA) is added to the reaction mixture and incubated at room temperature for 90 minutes. Upon excitation of these beads with laser light at 680 nm, singlet oxygen is produced. This singlet oxygen is rapidly quenched, unless the AlphaLISA Anti-Rabbit IgG acceptor beads are in close proximity, in which case a proximity signal can be measured at […]. In the presence of cellular CDK8 catalytic activity, there is a very strong proximity signal. Selective CDK8 inhibitors affect a decrease in this proximity signal through a decrease in phosphorylation of STAT1 at serine 727. The percentage inhibition at individual concentrations relative to high and low controls is calculated. The data are analyzed by using nonlinear regression to generate IC50 values.

Cn1cc(-c2ccc(-c3cnc4cccc(N5CCN(c6nccs6)CC5)n34)cc2)cn1 [Compound P-0383, 2-(4-(3-(4-(1-methyl-1H-pyrazol-4-yl)phenyl)imidazo[1,2-a]pyridin-5-yl)piperazin-1-yl)thiazole] and Cn1cc(-c2ccc(-c3cnc4cccc(N5CCNCC5)n34)cc2)cn1 [Compound P-0393, 3-(4-(1-methyl-1H-pyrazol-4-yl)phenyl)-5-(piperazin-1-yl)imidazo[1,2-a]pyridine] fall in the same range of IC50: 1000 to 10000 nM for the first, 1000 to 10000 nM for the second.

Compared with CC(C)(O)C#Cc1cccn2ncc(-c3ccc(OCCN4CCCCC4)cc3)c12 [Compound P-0406, 2-methyl-4-(3-(4-(2-(piperidin-1-yl)ethoxy)phenyl)pyrazolo[1,5-a]pyridin-4-yl)but-3-yn-2-ol], CC(C)(O)C#Cc1cccn2ncc(-c3ccc(S(=O)(=O)N4CCCCC4)cc3)c12 [Compound P-0413, 2-methyl-4-(3-(4-(piperidin-1-ylsulfonyl)phenyl)pyrazolo[1,5-a]pyridin-4-yl)but-3-yn-2-ol] is higher in IC50: 100 to 1000 nM for the first, 1000 to 10000 nM for the second. The first is the more potent here.

Compared with O=S1(=O)CCC(Oc2cccc3ncc(-c4ccc(-c5cnn(C(F)F)c5)cc4)n23)CC1 [Compound P-0349, 4-((3-(4-(1-(difluoromethyl)-1H-pyrazol-4-yl)phenyl)imidazo[1,2-a]pyradin-5-yl)oxy)tetrahydro-2H-thiopyran 1,1-dioxide], CS(=O)(=O)N1CCC(Oc2cccc3ncc(-c4ccc(-c5cnn(C(F)F)c5)cc4)n23)CC1 [Compound P-0298, 3-(4-(1-(difluoromethyl)-1H-pyrazol-4-yl)phenyl)-5-((1-(methylsulfonyl)piperidin-4-yl)oxy)imidazo[1,2-a]pyridine] is higher in IC50: 100 to 1000 nM for the first, 1000 to 10000 nM for the second.

First: Cn1cc(C#Cc2cnc3cccc(C4=CCC(C#N)CC4)n23)cn1 (stereo not shown) [Compound P-0374, 4-(3-((1-methyl-1H-pyrazol-4-yl)ethynyl)imidazo[1,2-a]pyridin-5-yl)cyclohex-3-ene-1-carbonitrile]
Second: COC(=O)CC1CCN(c2cccc3ncc(C#Cc4cnn(C)c4)n23)CC1 [Compound P-0312, methyl 2-(1-(3-((1-methyl-1H-pyrazol-4-yl)ethynyl)imidazo[1,2-a]pyridin-5-yl)piperidin-4-yl)acetate]
The IC50 of the first is lower: 0.1 to 100 nM for the first, 1000 to 10000 nM for the second. The first is the more potent here.

First: O=C(NCc1ccc(-c2cnc3cccc(N4CCC5(CCNC5=O)CC4)n23)cc1)c1cccnc1 [Compound P-0449, N-(4-(5-(1-oxo-2,8-diazaspiro[4.5]decan-8-yl)imidazo[1,2-a]pyridin-3-yl)benzyl)nicotinamide]
Second: Cn1cc(-c2ccc(-c3cnc4cccc(N5CCC6(CCNC6=O)CC5)n34)cc2)cn1 [Compound P-0450, 8-(3-(4-(1-methyl-1H-pyrazol-4-yl)phenyl)imidazo[1,2-a]pyridin-5-yl)-2,8-diazaspiro[4.5]decan-1-one]
The IC50 of the first is higher: 1000 to 10000 nM for the first, 0.1 to 100 nM for the second.

Cn1ncc2cc(-c3cnc4cccc(N5CCC(C#N)CC5)n34)ccc21 [Compound P-0361, 1-(3-(1-methyl-1H-indazol-5-yl)imidazo[1,2-a]pyridin-5-yl)piperidine-4-carbonitrile] and N#CC1CCN(c2cccc3ncc(-c4ccc(-c5cnn(C(F)F)c5)cc4)n23)CC1 [Compound P-0440, 1-(3-(4-(1-(difluoromethyl)-1H-pyrazol-4-yl)phenyl)imidazo[1,2-a]pyridin-5-yl)piperidine-4-carbonitrile] fall in the same range of IC50: 0.1 to 100 nM for the first, 0.1 to 100 nM for the second.

Cn1cc(-c2ccc(-c3cnc4cccc(N5CCC(C)(O)CC5)n34)cc2)cn1 [Compound P-0396, 4-methyl-1-(3-(4-(1-methyl-1H-pyrazol-4-yl)phenyl)imidazo[1,2-a]pyridin-5-yl)piperidin-4-ol] and Cn1cc(-c2ccc(-c3cnc4cccc(N5CCC(O)CC5)n34)cc2)cn1 [Compound P-0397, 1-(3-(4-(1-methyl-1H-pyrazol-4-yl)phenyl)imidazo[1,2-a]pyridin-5-yl)piperidin-4-ol] fall in the same range of IC50: 100 to 1000 nM for the first, 100 to 1000 nM for the second.

Cn1cc(-c2ccc(-c3cnc4cccc(N5CCC(CO)CC5)n34)cc2)cn1 [Compound P-0434, [1-[3-[4-(1-methylpyrazol-4-yl)phenyl]imidazo[1,2-a]pyridin-5-yl]-4-piperidyl]methanol] and Cn1cc(-c2ccc(-c3cnc4cccc(N5CCOCC5)n34)cc2)cn1 [Compound P-0395, 4-(3-(4-(1-methyl-1H-pyrazol-4-yl)phenyl)imidazo[1,2-a]pyridin-5-yl)morpholine] fall in the same range of IC50: 1000 to 10000 nM for the first, 1000 to 10000 nM for the second.

First: CCC(O)(C#Cc1cccn2ncc(-c3ccc(-c4cnn(C)c4)cc3)c12)CC [Compound P-0373, 3-ethyl-1-(3-(4-(1-methyl-1H-pyrazol-4-yl)phenyl)pyrazolo[1,5-a]pyridin-4-yl)pent-1-yn-3-ol]
Second: Cn1cc(-c2ccc(-c3cnc4cccc(C#CC(C)(C)O)n34)cc2)cn1 [Compound P-0375, 2-methyl-4-(3-(4-(1-methyl-1H-pyrazol-4-yl)phenyl)imidazo[1,2-a]pyridin-5-yl)but-3-yn-2-ol]
The IC50 of the first is higher: 100 to 1000 nM for the first, 0.1 to 100 nM for the second.

NC(=O)N1CCC(Oc2cccc3ncc(-c4ccc(-c5cnn(C(F)F)c5)cc4)n23)CC1 [Compound P-0299, 4-((3-(4-(1-(difluoromethyl)-1H-pyrazol-4-yl)phenyl)imidazo[1,2-a]pyridin-5-yl)oxy)piperidine-1-carboxamide] and CNC(=O)N1CCC(Oc2cccc3ncc(-c4ccc(-c5cnn(C(F)F)c5)cc4)n23)CC1 [Compound P-0292, 4-((3-(4-(1-(difluoromethyl)-1H-pyrazol-4-yl)phenyl)imidazo[1,2-a]pyridin-5-yl)oxy)-N-methylpiperidine-1-carboxamide] fall in the same range of IC50: 1000 to 10000 nM for the first, 1000 to 10000 nM for the second.

CC(C)(O)C#Cc1cccn2ncc(-c3ccc(NS(=O)(=O)C4CC4)cc3)c12 [Compound P-0412, N-(4-(4-(3-hydroxy-3-methylbut-1-yn-1-yl)pyrazolo[1,5-a]pyridin-3-yl)phenyl)cyclopropane-sulfonamide] and COc1ncc(-c2cnn3cccc(C#CC(C)(C)O)c23)cn1 [Compound P-0288, 4-(3-(2-methoxypyrimidin-5-yl)pyrazolo[1,5-a]pyridin-4-yl)-2-methylbut-3-yn-2-ol] fall in the same range of IC50: 100 to 1000 nM for the first, 100 to 1000 nM for the second.

CNC(=O)C1CC=C(c2cccn3ncc(-c4ccc(-c5cnn(C)c5)cc4)c23)CC1 (stereo not shown) [Compound P-0442, N-methyl-4-(3-(4-(1-methyl-1H-pyrazol-4-yl)phenyl)pyrazolo[1,5-a]pyridin-4-yl)cyclohex-3-ene-1-carboxamide] and CC1(C#N)CCN(c2cccn3ncc(-c4ccc(-c5cnn(C(F)F)c5)cc4)c23)CC1 [Compound P-0404, 1-[3-[4-[1-(difluoromethyl)pyrazol-4-yl]phenyl]pyrazolo[1,5-a]pyridin-4-yl]-4-methyl-piperidine-4-carbonitrile] fall in the same range of IC50: 0.1 to 100 nM for the first, 0.1 to 100 nM for the second.

Cn1cc(Nc2ncc(-c3cnc4cccc(N5CCC6(CC5)C(=O)Nc5ccccc56)n34)cn2)cn1 [Compound P-0453, 1′-(3-(2-((1-methyl-1H-pyrazol-4-yl)amino)pyrimidin-5-yl)imidazo[1,2-a]pyridin-5-yl)spiro[indoline-3,4′-piperidin]-2-one] and Cn1cncc1C#Cc1cnc2cccc(N3CCC4(CC3)C(=O)Nc3ccccc34)n12 [Compound P-0376, 1′-[3-[2-(3-methylimidazol-4-yl)ethynyl]imidazo[1,2-a]pyridin-5-yl]spiro[indoline-3,4′-piperidine]-2-one] fall in the same range of IC50: 100 to 1000 nM for the first, 100 to 1000 nM for the second.

Cn1ncc2cc(-c3cnc4[nH]ccc4c3NCC(C)(C)C#N)ccc21 [Compound P-0336, 2,2-dimethyl-3-((5-(1-methyl-1H-indazol-5-yl)-1H-pyrrolo[2,3-b]pyridin-4-yl)amino)propanenitrile] and Cn1cc(-c2ccc(-c3cnc4ccc(C#N)c(N5CCC(C#N)CC5)n34)cc2)cn1 [Compound P-0339, 5-(4-cyanopiperidin-1-yl)-3-(4-(1-methyl-1H-pyrazol-4-yl)phenyl)imidazo[1,2-a]pyridine-6-carbonitrile] fall in the same range of IC50: 100 to 1000 nM for the first, 100 to 1000 nM for the second.

First: N#CC1CCN(c2cccn3ncc(-c4ccc(-c5nc(C6CC6)no5)cc4)c23)CC1 [Compound P-0423, 1-(3-(4-(3-cyclopropyl-1,2,4-oxadiazol-5-yl)phenyl)pyrazolo[1,5-a]pyridin-4-yl)piperidine-4-carbonitrile]
Second: Cn1cc(-c2ccc(-c3cnc4cccc(N5CCCCC5)n34)cc2)cn1 [Compound P-0381, 3-(4-(1-methyl-1H-pyrazol-4-yl)phenyl)-5-(piperidin-1-yl)imidazo[1,2-a]pyridine]
The IC50 of the first is lower: 0.1 to 100 nM for the first, 1000 to 10000 nM for the second.

Compound Cn1cc(C#Cc2cnc3cccc(N4CCC5(CC4)COC5)n23)cn1 [Compound P-0354, 7-(3-((1-methyl-1H-pyrazol-4-yl)ethynyl)imidazo[1,2-a]pyridin-5-yl)-2-oxa-7-azaspiro[3.5]nonane] has an IC50 of 1000 to 10000 nM.
